According to PubChem BioAssay (NCI):
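GI50 = concentration required for 50% inhibition of growth. TGI: total growth inhibition.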

Legend:
Assay in all cases: NCI anticancer screen, dose series, 384-well format
HCT-15 colon = system: HCT-15 colon
K-562 leukemia = system: K-562 leukemia
SK-OV-3 ovarian = system: SK-OV-3 ovarian
A549 NSCLC = system: A549 NSCLC
NCI-H460 NSCLC = system: NCI-H460 NSCLC
MDA-MB-435 melanoma = system: MDA-MB-435 melanoma
M14 melanoma = system: M14 melanoma
OVCAR-3 ovarian = system: OVCAR-3 ovarian
SK-MEL-5 melanoma = system: SK-MEL-5 melanoma
MDA-MB-231 breast = system: MDA-MB-231 breast
MALME-3M melanoma = system: MALME-3M melanoma
NCI-H226 lung = system: NCI-H226 lung
COLO 205 colon = system: COLO 205 colon
HCT-116 colon = system: HCT-116 colon
HCC-2998 colon = system: HCC-2998 colon
MDA-MB-468 breast = system: MDA-MB-468 breast
RPMI-8226 leukemia = system: RPMI-8226 leukemia
MOLT-4 leukemia = system: MOLT-4 leukemia
UACC-257 melanoma = system: UACC-257 melanoma
A498 renal = system: A498 renal
LOX IMVI melanoma = system: LOX IMVI melanoma
SF-539 CNS = system: SF-539 CNS
SN12C renal = system: SN12C renal
HOP-62 NSCLC = system: HOP-62 NSCLC
NCI-H23 lung = system: NCI-H23 lung
CAKI-1 renal = system: CAKI-1 renal
OVCAR-4 ovarian = system: OVCAR-4 ovarian
MCF7 breast = system: MCF7 breast
HS 578T breast = system: HS 578T breast
786-0 renal = system: 786-0 renal
UO-31 renal = system: UO-31 renal
NCI-H322M lung = system: NCI-H322M lung
SNB-19 CNS = system: SNB-19 CNS
IGROV1 ovarian = system: IGROV1 ovarian
OVCAR-5 ovarian = system: OVCAR-5 ovarian
SK-MEL-2 melanoma = system: SK-MEL-2 melanoma
SW-620 colon = system: SW-620 colon
SNB-75 CNS = system: SNB-75 CNS
SF-268 CNS = system: SF-268 CNS
TK-10 renal = system: TK-10 renal
EKVX NSCLC = system: EKVX NSCLC
U251 glioblastoma = system: U251 glioblastoma
BT-549 breast = system: BT-549 breast
ACHN renal = system: ACHN renal
NCI/ADR-RES ovarian = system: NCI/ADR-RES ovarian
DU-145 prostate = system: DU-145 prostate
RXF 393 renal = system: RXF 393 renal

c1cn2cc(-c3ccc4cn[nH]c4c3)nc(Nc3ccc(N4CCOCC4)cc3)c2n1
GI50 (HCT-15 colon): 19.4 µM | TGI (HCT-15 colon): > 100 µM | GI50 (K-562 leukemia): > 100 µM | TGI (K-562 leukemia): > 100 µM | GI50 (SK-OV-3 ovarian): 5.35 µM | TGI (SK-OV-3 ovarian): 19.3 µM | GI50 (A549 NSCLC): 17.1 µM | TGI (A549 NSCLC): > 53.8 µM | GI50 (NCI-H460 NSCLC): 11.1 µM | TGI (NCI-H460 NSCLC): 24.6 µM | GI50 (MDA-MB-435 melanoma): 22.6 µM | TGI (MDA-MB-435 melanoma): > 75.5 µM | GI50 (M14 melanoma): 23.5 µM | TGI (M14 melanoma): 86.6 µM | GI50 (OVCAR-3 ovarian): 12.7 µM | TGI (OVCAR-3 ovarian): 28.3 µM | GI50 (SK-MEL-5 melanoma): 11.3 µM | TGI (SK-MEL-5 melanoma): 32.8 µM | GI50 (MDA-MB-231 breast): 10.1 µM | TGI (MDA-MB-231 breast): 21.9 µM | GI50 (MALME-3M melanoma): 6.24 µM | TGI (MALME-3M melanoma): 19.4 µM | GI50 (NCI-H226 lung): 9.38 µM | TGI (NCI-H226 lung): 23 µM | GI50 (COLO 205 colon): 37.8 µM | TGI (COLO 205 colon): > 100 µM | GI50 (HCT-116 colon): 15 µM | TGI (HCT-116 colon): 34.3 µM | GI50 (HCC-2998 colon): 17.5 µM | TGI (HCC-2998 colon): > 85.7 µM | GI50 (MDA-MB-468 breast): 16.1 µM | TGI (MDA-MB-468 breast): 57.1 µM | GI50 (RPMI-8226 leukemia): 16.9 µM | TGI (RPMI-8226 leukemia): > 58.6 µM | GI50 (MOLT-4 leukemia): 48 µM | TGI (MOLT-4 leukemia): > 100 µM | GI50 (UACC-257 melanoma): 11.5 µM | TGI (UACC-257 melanoma): 27.6 µM | GI50 (A498 renal): 3.26 µM | TGI (A498 renal): 16.6 µM | GI50 (LOX IMVI melanoma): 15.4 µM | TGI (LOX IMVI melanoma): 36.6 µM | GI50 (SF-539 CNS): 4.6 µM | TGI (SF-539 CNS): 16.5 µM | GI50 (SN12C renal): 10 µM | TGI (SN12C renal): 22.6 µM | GI50 (HOP-62 NSCLC): 9.54 µM | TGI (HOP-62 NSCLC): 22.2 µM | GI50 (NCI-H23 lung): 10.8 µM | TGI (NCI-H23 lung): 25.7 µM | GI50 (CAKI-1 renal): 11.9 µM | TGI (CAKI-1 renal): 25.3 µM | GI50 (OVCAR-4 ovarian): 6.52 µM | TGI (OVCAR-4 ovarian): 20 µM | GI50 (MCF7 breast): 8.62 µM | TGI (MCF7 breast): 30.2 µM | GI50 (HS 578T breast): 1.87 µM | TGI (HS 578T breast): 8.11 µM | GI50 ([…]-0 renal): 8.76 µM | TGI (786-0 renal): 21.1 µM | GI50 (UO-31 renal): 12.4 µM | TGI (UO-31 renal): 32 µM | GI50 (NCI-H322M lung): 12.3 µM | TGI (NCI-H322M lung): 37.5 µM | GI50 (SNB-19 CNS): 8.81 µM | TGI (SNB-19 CNS): 21.4 µM | GI50 (IGROV1 ovarian): 14.1 µM | TGI (IGROV1 ovarian): 37.9 µM | GI50 (OVCAR-5 ovarian): 12.8 µM | TGI (OVCAR-5 ovarian): 30.3 µM | GI50 (SK-MEL-2 melanoma): 1.67 µM | TGI (SK-MEL-2 melanoma): 8.99 µM | GI50 (SW-620 colon): 33.1 µM | TGI (SW-620 colon): > 100 µM | GI50 (SNB-75 CNS): 2.15 µM | TGI (SNB-75 CNS): 9.11 µM | GI50 (SF-268 CNS): 4.45 µM | TGI (SF-268 CNS): 16.9 µM | GI50 (TK-10 renal): 5.67 µM | TGI (TK-10 renal): 22 µM | GI50 (EKVX NSCLC): 9.48 µM | TGI (EKVX NSCLC): 25.1 µM | GI50 (U251 glioblastoma): 9.72 µM | TGI (U251 glioblastoma): 25.4 µM | GI50 (BT-549 breast): 11.2 µM | TGI (BT-549 breast): 23.5 µM | GI50 (ACHN renal): 10.7 µM | TGI (ACHN renal): 25.1 µM | GI50 (NCI/ADR-RES ovarian): 11.7 µM | TGI (NCI/ADR-RES ovarian): 29.6 µM | GI50 (DU-145 prostate): 10 µM | TGI (DU-145 prostate): 22.7 µM | GI50 (RXF 393 renal): 2.44 µM | TGI (RXF 393 renal): 13.3 µM

C=CC(=O)N[C@H]1CCOC[C@H]1Nc1ncc2cc(-c3c(Cl)c(OC)cc(OC)c3Cl)ccc2n1
GI50 (HCT-15 colon): 11.4 µM | TGI (HCT-15 colon): 35.5 µM | GI50 (K-562 leukemia): 7.1 µM | TGI (K-562 leukemia): 26.9 µM | GI50 (SK-OV-3 ovarian): 19.4 µM | TGI (SK-OV-3 ovarian): 63.4 µM | GI50 (A549 NSCLC): 17.3 µM | TGI (A549 NSCLC): 74.2 µM | GI50 (NCI-H460 NSCLC): 11.8 µM | TGI (NCI-H460 NSCLC): 25.7 µM | GI50 (MDA-MB-435 melanoma): > 64.3 µM | TGI (MDA-MB-435 melanoma): > 100 µM | GI50 (M14 melanoma): 16.8 µM | TGI (M14 melanoma): > 69.2 µM | GI50 (OVCAR-3 ovarian): 13.9 µM | TGI (OVCAR-3 ovarian): 34 µM | GI50 (SK-MEL-5 melanoma): 10.9 µM | TGI (SK-MEL-5 melanoma): 23.6 µM | GI50 (MDA-MB-231 breast): 9.96 µM | TGI (MDA-MB-231 breast): > 78.7 µM | GI50 (MALME-3M melanoma): > 53.7 µM | TGI (MALME-3M melanoma): > 100 µM | GI50 (NCI-H226 lung): 4.55 µM | TGI (NCI-H226 lung): 20.8 µM | GI50 (COLO 205 colon): 18.2 µM | TGI (COLO 205 colon): 46.1 µM | GI50 (HCT-116 colon): 15.1 µM | TGI (HCT-116 colon): 33.6 µM | GI50 (HCC-2998 colon): 16.2 µM | TGI (HCC-2998 colon): 32.5 µM | GI50 (MDA-MB-468 breast): 3.37 µM | TGI (MDA-MB-468 breast): 13.9 µM | GI50 (RPMI-8226 leukemia): 4.12 µM | TGI (RPMI-8226 leukemia): 15 µM | GI50 (MOLT-4 leukemia): 2.59 µM | TGI (MOLT-4 leukemia): 14.8 µM | GI50 (UACC-257 melanoma): 13.9 µM | TGI (UACC-257 melanoma): 38.8 µM | GI50 (A498 renal): 10.6 µM | TGI (A498 renal): 40.2 µM | GI50 (LOX IMVI melanoma): 13 µM | TGI (LOX IMVI melanoma): 27.3 µM | GI50 (SF-539 CNS): 13.5 µM | TGI (SF-539 CNS): 28.2 µM | GI50 (SN12C renal): 15.4 µM | TGI (SN12C renal): 75 µM | GI50 (HOP-62 NSCLC): 20.4 µM | TGI (HOP-62 NSCLC): 57.2 µM | GI50 (NCI-H23 lung): 16.9 µM | TGI (NCI-H23 lung): 63.9 µM | GI50 (CAKI-1 renal): 12 µM | TGI (CAKI-1 renal): 82.4 µM | GI50 (OVCAR-4 ovarian): 14.9 µM | TGI (OVCAR-4 ovarian): 54.1 µM | GI50 (MCF7 breast): 11.9 µM | TGI (MCF7 breast): 46.4 µM | GI50 (HS 578T breast): 12 µM | TGI (HS 578T breast): 27.9 µM | GI50 ([…]-0 renal): 16.5 µM | TGI (786-0 renal): 50.1 µM | GI50 (UO-31 renal): 23.3 µM | TGI (UO-31 renal): 98 µM | GI50 (NCI-H322M lung): 27.7 µM | TGI (NCI-H322M lung): > 100 µM | GI50 (SNB-19 CNS): 19.2 µM | TGI (SNB-19 CNS): 55.7 µM | GI50 (IGROV1 ovarian): 17.9 µM | TGI (IGROV1 ovarian): 63.5 µM | GI50 (OVCAR-5 ovarian): 27.5 µM | TGI (OVCAR-5 ovarian): > 88.4 µM | GI50 (SK-MEL-2 melanoma): 15.9 µM | TGI (SK-MEL-2 melanoma): 30.4 µM | GI50 (SW-620 colon): 19 µM | TGI (SW-620 colon): > 52.5 µM | GI50 (SNB-75 CNS): 6.99 µM | TGI (SNB-75 CNS): 33.5 µM | GI50 (SF-268 CNS): 4.16 µM | TGI (SF-268 CNS): 23.9 µM | GI50 (TK-10 renal): 20.9 µM | TGI (TK-10 renal): > 95.6 µM | GI50 (EKVX NSCLC): 12.3 µM | TGI (EKVX NSCLC): 39.6 µM | GI50 (U251 glioblastoma): 15 µM | TGI (U251 glioblastoma): 36.1 µM | GI50 (BT-549 breast): 4.77 µM | TGI (BT-549 breast): 19.5 µM | GI50 (ACHN renal): 30.6 µM | TGI (ACHN renal): > 100 µM | GI50 (NCI/ADR-RES ovarian): 12.9 µM | TGI (NCI/ADR-RES ovarian): 30.8 µM | GI50 (DU-145 prostate): 27.4 µM | TGI (DU-145 prostate): > 100 µM | GI50 (RXF 393 renal): 8.65 µM | TGI (RXF 393 renal): 26.2 µM
